Literature values as cited in publication PMC9814429, “First-in-human phase I dose-escalation and dose-expansion trial of the selective MEK inhibitor HL-085 in patients with advanced melanoma harboring NRAS mutations” (BMC Medicine, 2023).

System: NRAS mutant melanoma
Set-up: method as in PMID 28284557
Conditions: phase 3, NRAS mutant melanoma

In the case of Cn1cnc2c(F)c(Nc3ccc(Br)cc3F)c(C(=O)NOCCO)cc21 [binimetinib], the DCR is listed as 58%, the ORR is listed as 15% and the PFS is listed as 2.8 months.
